According to patent US20220242812A1, “SWELL1-LRRC8 COMPLEX MODULATORS” (Washington University, priority 2019, published 2022):
Read-outs that look alike come from different tables or passages of the source. Blank lines part the entries; values can stand above or below the compound they belong to.

Tests used:
CYP 2D6 = molecular target: T1, CYP 2D6 (Homo sapiens, UniProt P10635); assay: Cytochrome P450 inhibition assay, CYP 2D6; format: in vitro ADME; conditions: human liver microsomes
T1 construct: Human liver microsomes were diluted in Potassium phosphate buffer; tissue Charles River Laboratory (performed the study); host or cells: human liver microsomes

[1] = Tolerability of chronic daily i.p. injection; format: in vivo, mice; conditions: daily i.p. injections for up to 8 weeks
Procedure: (§1) All compounds were dissolved in Kolliphor® EL (Sigma, #C5135).

[2] = system: insulin-AKT2-AS160 signaling (pAKT2, pAS160); assay: Insulin-stimulated AKT2-AS160 signaling western blot in 3T3-F442A cells
[3] = Microsomal metabolic stability assay; format: in vitro ADME; conditions: human liver microsomes; read-out: Human hepatic microsome stability Clintrinsic
Procedure: In vitro ADMET studies were performed at Charles River Laboratory as outlined below. For the Caco-2 permeability assay, the cells were cultured (DMEM, 10% FBS, 1% L-Glutamax and 1% PenStrep) for 21 days. HBSS was used as the transport buffer and the TEER measurements were taken before the start of the assay. Compounds were added apical side to determine apical to basolateral transport (A-B) and basal side to determine basolateral to apical transport (B-A). Samples (10 μL) were collected at time 0 and 2 h and diluted (5×) with transport buffer. After the quenching reaction, the samples were further diluted in MilliQ water for bioanalysis. […] The analyte levels (peak area ratios) were measured on apical (A) and basolateral (B) sides at To and T2h-A-B and B-A fluxes were calculated averaging 3 individual measurements. Apparent permeability (Papp, cm/sec) was calculated as dQ (flux)/(dt*area*concentration). The efflux ratio was calculated by Papp(B-A)/Papp(B-A). […] The supernatant was diluted in water and further analyzed in LC/MS autosampler. Half-life (T1/2) was calculated by the formula 0.692/slope where slope is ln(% remaining relative to Tzero vs time). Intrinsic clearance was calculated using the (CLn1)=T112*1/initial concentration*mg prep/g liver*g liver/kg body weight. […]

VRAC/ICl,SWELL = VRAC/ICl,SWELL (Homo sapiens, UniProt Q8IWT6); conditions: selective VRAC/ICl,SWELL inhibitor; cited from earlier work
non-T2D mice = assay: Metabolic phenotyping in non-T2D mice (KKAa control strain, lean chow-fed); format: in vivo
Procedure: as §1
(§2) Mice were fasted for 6 h prior to glucose tolerance tests (GTT). Baseline glucose levels at 0 min timepoint (fasting glucose, FG) were measured from blood sample collected from tail snipping using glucometer (Bayer Healthcare LLC). Either 1 g or 0.75 g D-Glucose/kg body weight were injected (i.p.) for lean or HFD mice, respectively and glucose levels were measured at 7, 15, 30, 60, 90 and 120 min timepoints after injection. For insulin tolerance tests (ITTs), the mice were fasted for 4 h. Similar to GTTs, the baseline blood glucose levels were measured at 0 min timepoint and 15, 30, 60, 90 and 120 min timepoints post-injection (i.p.) of insulin (HumulinR, 1 U/kg body weight for lean mice or 1.25 U/kg body weight for HFD mice). […] The collected plasma was then measured for insulin content by using Ultra-Sensitive Mouse Insulin ELISA Kit (Crystal Chem, #90080). All mice and treatment groups were assessed blindly while performing experiments.

SWELL1 protein [4] = molecular target: T2, SWELL1 protein (Mus musculus, UniProt Q80WG5); conditions: for SWELL1 protein expression: applied for 96 hours (10 μM)
[5] = system: cytochrome p450 isoenzyme; assay: Cytochrome P450 inhibition assay, overall statement; format: in vitro ADME, Human; conditions: in words
insulin secretion = assay: Glucose-stimulated insulin secretion in plasma of HFD mice; format: in vivo; conditions: 21 weeks HFD
Procedure: as §2

[6] = system: delayed rectifier channels; conditions: cited from earlier work
SWELL1 protein [7] = molecular target: T2, SWELL1 protein; assay: SWELL1 protein expression in adipose tissue of treated T2D mice; format: in vivo; parameters: western blots detecting SWELL1 protein in visceral fat of C57BL/6 mice on high-fat diet; from tissue; host or cells: visceral / inguinal adipose tissue of C57BL/6 HFD and KKAy mice; conditions: 5 mg/kg i.p.
Procedure: as §1
(SEQ ID NO: 13) (Pacific Antibodies).

hERG = hERG (Homo sapiens, UniProt Q12809); conditions: cited from earlier work
[8] = lean, non-T2D, glucose-tolerant mice, vs vehicle

SMILES: CCCCC1(C2CCCC2)Cc2cc(OCCCC(=O)O)c(Cl)c(Cl)c2C1=O (centres unmarked) [SN-401, 4-((2-butyl-6,7-dichloro-2-cyclopentyl-1-oxo-2,3-dihydro-1H-inden-5-yl)oxy)butanoic acid]
IC50 (CYP 2D6): > 10 µM | Signs of toxicity [1]: no overt signs of toxicity | Insulin-pAKT2 signaling ([2]; 3T3-F442A adipocytes, 1 μM 96 hours followed by washout, vs vehicle): robustly increases | Effects on insulin-AKT2-AS160 signaling in SWELL1 KO cells ([2]; SWELL1 KO 3T3-F442A adipocytes): absent | Insulin-stimulated levels of pAS160 ([2]; WT 3T3-F442A adipocytes, 10 μM 96 h): enhanced | Insulin-stimulated levels of pAKT2 ([2]; WT 3T3-F442A, 10 μM 96 h): enhanced | CLint scaled [3]: 72.7 mL/min/kg | IC50 (VRAC/ICl,SWELL): ~5 µM | Hypoglycemia (non-T2D mice; control KKAa parental strain, 5 mg/kg x 4-10 days): does not cause hypoglycemia | FG (non-T2D mice; [8]): similar | GTT (non-T2D mice; [8]): similar | ITT (non-T2D mice; [8]): similar | EC50 (SWELL1 protein [4]): < 1 µM | SWELL1 protein expression (SWELL1 protein [4]; 3T3-F442A adipocytes): 1.5 fold control expression | SWELL1 protein expression (SWELL1 protein [4]; 3T3-F442A preadipocytes): 3 fold control expression | Cytochrome p450 isoenzyme inhibition [5]: minimal | Glucose-stimulated insulin secretion (GSIS), serum insulin measurements (insulin secretion): significantly improved | Effect on delayed rectifier channels [6]: no effect | SWELL1 expression in adipose tissue (SWELL1 protein [7]; HFD-fed T2D mice): 2.3 fold | SWELL1 expression in adipose tissue (SWELL1 protein [7]; T2D KKAy mice, compared to non-T2D C57/B6 and KKAa): increases | Effect on hERG (hERG): no effect

IC50 (CYP 2D6): > 10 µM | CLint scaled [3]: 46.4 mL/min/kg
SMILES: CCCCC1(C2CCCC2)Cc2cc(OCCCCCC(=O)O)c(Cl)c(Cl)c2C1=O (centres unmarked) [SN-406, 6-((2-butyl-6,7-dichloro-2-cyclopentyl-1-oxo-2,3-dihydro-1H-inden-5-yl)oxy)hexanoic acid]
